Data published in ChEMBL document CHEMBL3045011, “Synthesis and Herbicidal Activities of 2-(5-Isoxazolyloxy)-acetamide Derivatives” (J Pestic Sci, 1998).
The source made the active and inactive calls. No cut-off for these calls is given here.

Columns and labels:
Triticum aestivum [1] = test: Toxicity in Triticum aestivum cv. Nohrin-61 (wheat) assessed as seedling death under green house at 1 kg/ha at 25 degC measured after 4 weeks by crop selectivity assay; type: organism-based; conditions: in vivo, 672 h
Echinochloa crus-galli [2] = test: Herbicidal activity against Echinochloa crus-galli (barnyard grass) assessed as seedling death under green house at 0.5 kg/ha at 25 degC measured after 4 weeks; type: functional, organism-based
Gossypium hirsutum [3] = test: Toxicity in Gossypium hirsutum cv. Hakushuu (cotton) assessed as seedling death under green house at 0.5 kg/ha at 25 degC measured after 4 weeks by crop selectivity assay; type: organism-based; conditions: in vivo, 672 h
Gossypium hirsutum [4] = test: Toxicity in Gossypium hirsutum cv. Hakushuu (cotton) assessed as seedling death under green house at 1 kg/ha at 25 degC measured after 4 weeks by crop selectivity assay; type: organism-based; conditions: in vivo, 672 h
Digitaria ciliaris [5] = test: Herbicidal activity against Digitaria ciliaris assessed as seedling death under green house at 1 kg/ha at 25 degC measured after 4 weeks; type: functional, organism-based
Digitaria ciliaris [6] = test: Herbicidal activity against Digitaria ciliaris assessed as seedling death under green house at 0.5 kg/ha at 25 degC measured after 4 weeks; type: functional, organism-based
Glycine max [7] = test: Toxicity in Glycine max cv. Tamahomare (soybean) assessed as seedling death under green house at 0.5 kg/ha at 25 degC measured after 4 weeks by crop selectivity assay; type: organism-based; conditions: in vivo, 672 h
Echinochloa crus-galli [8] = test: Herbicidal activity against Echinochloa crus-galli (barnyard grass) assessed as seedling death under green house at 1 kg/ha at 25 degC measured after 4 weeks; type: functional, organism-based
Triticum aestivum [9] = test: Toxicity in Triticum aestivum cv. Nohrin-61 (wheat) assessed as seedling death under green house at 0.5 kg/ha at 25 degC measured after 4 weeks by crop selectivity assay; type: organism-based; conditions: in vivo, 672 h
Glycine max [10] = test: Toxicity in Glycine max cv. Tamahomare (soybean) assessed as seedling death under green house at 1 kg/ha at 25 degC measured after 4 weeks by crop selectivity assay; type: organism-based; conditions: in vivo, 672 h
Echinochloa crus-galli [11] = test: Herbicidal activity against Echinochloa crus-galli (barnyard grass) assessed as seedling death under green house at 2 kg/ha at 25 degC measured after 4 weeks; type: functional, organism-based
Digitaria ciliaris [12] = test: Herbicidal activity against Digitaria ciliaris assessed as seedling death under green house at 2 kg/ha at 25 degC measured after 4 weeks; type: functional, organism-based
Amaranthus viridis [13] = test: Herbicidal activity against Amaranthus viridis assessed as seedling death under green house at 0.25 kg/ha at 25 degC measured after 4 weeks; type: functional, organism-based
Gossypium hirsutum [14] = test: Toxicity in Gossypium hirsutum cv. Hakushuu (cotton) assessed as seedling death under green house at 0.25 kg/ha at 25 degC measured after 4 weeks by crop selectivity assay; type: organism-based; conditions: in vivo, 672 h
Digitaria ciliaris [15] = test: Herbicidal activity against Digitaria ciliaris assessed as seedling death under green house at 0.25 kg/ha at 25 degC measured after 4 weeks; type: functional, organism-based
Triticum aestivum [16] = test: Toxicity in Triticum aestivum cv. Nohrin-61 (wheat) assessed as seedling death under green house at 0.25 kg/ha at 25 degC measured after 4 weeks by crop selectivity assay; type: organism-based; conditions: in vivo, 672 h
Glycine max [17] = test: Toxicity in Glycine max cv. Tamahomare (soybean) assessed as seedling death under green house at 0.25 kg/ha at 25 degC measured after 4 weeks by crop selectivity assay; type: organism-based; conditions: in vivo, 672 h
Amaranthus viridis [18] = test: Herbicidal activity against Amaranthus viridis assessed as seedling death under green house at 0.5 kg/ha at 25 degC measured after 4 weeks; type: functional, organism-based
Persicaria lapathifolia [19] = test: Herbicidal activity against Persicaria lapathifolia assessed as seedling death under green house at 0.5 kg/ha at 25 degC measured after 4 weeks; type: functional, organism-based
Persicaria lapathifolia [20] = test: Herbicidal activity against Persicaria lapathifolia assessed as seedling death under green house at 0.25 kg/ha at 25 degC measured after 4 weeks; type: functional, organism-based
Persicaria lapathifolia [21] = test: Herbicidal activity against Persicaria lapathifolia assessed as seedling death under green house at 1 kg/ha at 25 degC measured after 4 weeks; type: functional, organism-based
Amaranthus viridis [22] = test: Herbicidal activity against Amaranthus viridis assessed as seedling death under green house at 1 kg/ha at 25 degC measured after 4 weeks; type: functional, organism-based
Echinochloa crus-galli [23] = test: Herbicidal activity against Echinochloa crus-galli (barnyard grass) assessed as seedling death under green house at 0.25 kg/ha at 25 degC measured after 4 weeks; type: functional, organism-based

Q: How did the Activity (Triticum aestivum [1]) turn out when CN(C(=O)COc1onc(C(F)(F)F)c1-c1ccccc1)c1ccccc1 was run?
A: The Activity was “Non-toxic”.

Q: What about the Activity (Echinochloa crus-galli [2]) of the same compound?
A: Its Activity is “Active”.

Q: And the Activity (Gossypium hirsutum [3])?
A: Its Activity is “Non-toxic”.

Q: And the Activity (Gossypium hirsutum [4])?
A: Its Activity is “Non-toxic”.

Q: What about the Activity (Digitaria ciliaris [5]) of the same compound?
A: Its Activity is “Active”.

Q: What about the Activity (Digitaria ciliaris [6]) of the same compound?
A: The Activity was “Active”.

Q: And the Activity (Glycine max [7])?
A: The Activity was “Non-toxic”.

Q: What about the Activity (Echinochloa crus-galli [8]) of the same compound?
A: The Activity was “Active”.

Q: What about the Activity (Triticum aestivum [9]) of the same compound?
A: The Activity was “Non-toxic”.

Q: What about the Activity (Glycine max [10]) of the same compound?
A: Its Activity is “Non-toxic”.

Q: With CCCCCCN(C)C(=O)COc1onc(C(F)(F)F)c1C as the compound, how does the Activity (Echinochloa crus-galli [11]) read?
A: The Activity was “Active”.

Q: What about the Activity (Digitaria ciliaris [12]) of the same compound?
A: Its Activity is “Active”.

Q: What does the source list for CN(C(=O)COc1nnc(C(F)(F)F)s1)c1ccccc1?
A: Activity (Amaranthus viridis [13]): inactive; Activity (Gossypium hirsutum [14]): Non-toxic; Activity (Digitaria ciliaris [15]): inactive; Activity (Gossypium hirsutum [3]): Non-toxic; Activity (Triticum aestivum [16]): Non-toxic; Activity (Glycine max [17]): Non-toxic; Activity (Glycine max [7]): Non-toxic; Activity (Amaranthus viridis [18]): inactive; Activity (Triticum aestivum [9]): Non-toxic; Activity (Persicaria lapathifolia [19]): inactive; Activity (Persicaria lapathifolia [20]): inactive

Q: Cc1c(C(F)(F)F)noc1OCC(=O)N(C)c1ccccc1Br was tested. Which Activity (Gossypium hirsutum [14]) did it give?
A: The Activity was “Non-toxic”.

Q: What about the Activity (Digitaria ciliaris [15]) of the same compound?
A: The Activity was “Active”.

Q: And the Activity (Echinochloa crus-galli [2])?
A: The Activity was “Active”.

Q: And the Activity (Digitaria ciliaris [5])?
A: Its Activity is “Active”.

Q: What about the Activity (Persicaria lapathifolia [21]) of the same compound?
A: Its Activity is “Active”.

Q: And the Activity (Digitaria ciliaris [6])?
A: The Activity was “Active”.

Q: What about the Activity (Amaranthus viridis [22]) of the same compound?
A: The Activity was “Active”.

Q: What about the Activity (Triticum aestivum [16]) of the same compound?
A: Its Activity is “Non-toxic”.

Q: What about the Activity (Echinochloa crus-galli [23]) of the same compound?
A: The Activity was “Active”.

Q: What about the Activity (Glycine max [17]) of the same compound?
A: The Activity was “Non-toxic”.

Q: And the Activity (Amaranthus viridis [18])?
A: The Activity was “Active”.

Q: And the Activity (Echinochloa crus-galli [8])?
A: Its Activity is “Active”.

Q: CN(C(=O)COc1cc(C(F)(F)F)no1)c1ccccc1 was tested. Which Activity (Gossypium hirsutum [3]) did it give?
A: The Activity was “Non-toxic”.

Q: What about the Activity (Gossypium hirsutum [4]) of the same compound?
A: The Activity was “Non-toxic”.

Q: What about the Activity (Digitaria ciliaris [5]) of the same compound?
A: The Activity was “Active”.

Q: What about the Activity (Digitaria ciliaris [6]) of the same compound?
A: Its Activity is “Active”.

Q: What about the Activity (Glycine max [7]) of the same compound?
A: Its Activity is “Non-toxic”.

Q: What about the Activity (Echinochloa crus-galli [8]) of the same compound?
A: Its Activity is “Active”.

Q: What about the Activity (Triticum aestivum [9]) of the same compound?
A: Its Activity is “Non-toxic”.

Q: What does the source list for Cc1c(C(F)(F)F)noc1OCC(=O)N(C)c1ccccc1?
A: Activity (Triticum aestivum [1]): Non-toxic; Activity (Echinochloa crus-galli [2]): Active; Activity (Gossypium hirsutum [3]): Non-toxic; Activity (Digitaria ciliaris [5]): Active; Activity (Digitaria ciliaris [6]): Active; Activity (Amaranthus viridis [22]): Active; Activity (Glycine max [7]): Non-toxic; Activity (Echinochloa crus-galli [8]): Active; Activity (Triticum aestivum [9]): Non-toxic; Activity (Glycine max [10]): Non-toxic

Q: Which results are given for CN(C(=O)COc1nc2ccccc2s1)c1ccccc1 [MEFENACET]?
A: Activity (Amaranthus viridis [13]): inactive; Activity (Gossypium hirsutum [14]): Non-toxic; Activity (Gossypium hirsutum [3]): Non-toxic; Activity (Triticum aestivum [16]): Non-toxic; Activity (Glycine max [17]): Non-toxic; Activity (Glycine max [7]): Non-toxic; Activity (Triticum aestivum [9]): Non-toxic; Activity (Persicaria lapathifolia [19]): inactive; Activity (Persicaria lapathifolia [20]): inactive

Q: Which results are given for Cc1c(C(F)(F)F)noc1OCC(=O)N(C)c1cccc(F)c1?
A: Activity (Amaranthus viridis [13]): Active; Activity (Gossypium hirsutum [14]): Non-toxic; Activity (Digitaria ciliaris [15]): Active; Activity (Echinochloa crus-galli [2]): Active; Activity (Digitaria ciliaris [5]): Active; Activity (Persicaria lapathifolia [21]): Active; Activity (Digitaria ciliaris [6]): Active; Activity (Amaranthus viridis [22]): Active; Activity (Triticum aestivum [16]): Non-toxic; Activity (Echinochloa crus-galli [23]): Active; Activity (Glycine max [17]): Non-toxic; Activity (Amaranthus viridis [18]): Active; Activity (Echinochloa crus-galli [8]): Active
